The numbers were not newly measured in patent US10098870B2 (JENKEM TECHNOLOGY CO., LTD. (BEIJING), priority 2013, dated 2018), which cites them from elsewhere.

The conditions of data set [1]: in words; cited from earlier work.
For data set [2] the following is noted: acids, bases, physiological conditions; in words; cited from earlier work.

Consider `CO[C@H]1C[C@@H]2CC[C@@H](C)[C@@](O)(O2)C(=O)C(=O)N2CCCC[C@H]2C(=O)O[C@H]([C@H](C)C[C@@H]2CC[C@@H](OCCO)[C@H](OC)C2)CC(=O)[C@H](C)/C=C(\C)[C@@H](O)[C@@H](OC)C(=O)[C@H](C)C[C@H](C)/C=C/C=C/C=C/1C` [Everolimus, 42-O-(2-hydroxyethyl)-rapamycin], for which, in data set [1], the water-solubility result is “better water-solubility than that of rapamycin”.
Regarding `CO[C@H]1C[C@@H]2CC[C@@H](C)[C@@](O)(O2)C(=O)C(=O)N2CCCC[C@H]2C(=O)O[C@H]([C@H](C)C[C@@H]2CC[C@@H](O)[C@H](OC)C2)CC(=O)[C@H](C)/C=C(\C)[C@@H](O)[C@@H](OC)C(=O)[C@H](C)C[C@H](C)/C=C/C=C/C=C/1C` [Rapamycin], the stability result in data set [2] is given as “degraded even under physiological conditions”.
